Measured values taken from ChEMBL document CHEMBL1138337, “Bis-azaaromatic quaternary ammonium salts as antagonists at nicotinic receptors mediating nicotine-evoked dopamine release: An investigation of binding conformation” (2007).

Assays:
[1] = molecular target: Neuronal acetylcholine receptor; alpha4/beta2 (Rattus norvegicus) (UniProt P09483+P12390); experiment: Displacement of [3H]NIC from alpha-4-beta-2 nAChR expressed in rat brain membrane at 100 nM
[2] = molecular target: Neuronal acetylcholine receptor subunit alpha-7 (Rattus norvegicus) (UniProt Q05941); experiment: Displacement of [3H]MLA from alpha-7 nAChR expressed in rat brain membrane at 100 nM
Neuronal acetylcholine receptor subunit alpha-7 (Rattus norvegicus), sequence (Q05941 whole entry): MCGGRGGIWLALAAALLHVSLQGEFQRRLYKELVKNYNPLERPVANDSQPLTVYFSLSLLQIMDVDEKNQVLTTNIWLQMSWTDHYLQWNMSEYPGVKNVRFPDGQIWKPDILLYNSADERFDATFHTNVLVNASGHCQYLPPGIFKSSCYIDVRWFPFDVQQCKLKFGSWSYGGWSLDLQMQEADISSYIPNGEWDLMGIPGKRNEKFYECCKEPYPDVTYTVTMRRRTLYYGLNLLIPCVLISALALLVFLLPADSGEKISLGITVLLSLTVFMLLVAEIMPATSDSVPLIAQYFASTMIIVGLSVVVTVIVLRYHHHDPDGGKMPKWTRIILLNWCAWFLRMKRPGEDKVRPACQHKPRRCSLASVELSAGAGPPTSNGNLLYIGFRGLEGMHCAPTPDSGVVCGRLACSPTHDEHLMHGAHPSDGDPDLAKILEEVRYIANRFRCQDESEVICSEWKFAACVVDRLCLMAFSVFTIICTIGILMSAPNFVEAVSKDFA

Question: Which results are given for `Cc1ccc[n+](CCCCCc2ccccc2CCCCC[n+]2cccc(C)c2)c1`?
Answer: inhibition [1]: 0%; inhibition [2]: 5.4%

Question: How did the inhibition [1] turn out when `Cc1ccc[n+](CCC#Cc2ccc(C#CCC[n+]3cccc(C)c3)cc2)c1` was run?
Answer: 13%

Question: And the inhibition [2]?
Answer: 3.1%

Question: With `Cc1cccc[n+]1CCCCCc1ccccc1CCCCC[n+]1ccccc1C` as the compound, how does the inhibition [1] read?
Answer: 0%

Question: And the inhibition [2]?
Answer: 7.6%

Question: With `Cc1ccc[n+](CCCCCCCCCCCC[n+]2cccc(C)c2)c1` as the compound, how does the inhibition [1] read?
Answer: 0%

Question: What about the inhibition [2] of the same compound?
Answer: 0%

Question: What does the source list for `Cc1cc[n+](CCCC#Cc2cccc(C#CCCC[n+]3ccc(C)cc3)c2)cc1`?
Answer: inhibition [1]: 10%; inhibition [2]: 6.4%

Question: What does the source list for `CN1CCC[C@H]1c1ccc[n+](CCCCCc2ccccc2CCCCC[n+]2cccc([C@@H]3CCCN3C)c2)c1`?
Answer: inhibition [1]: 71%; inhibition [2]: 11%

Question: `Cc1cc[n+](CCCC#Cc2ccccc2C#CCCC[n+]2ccc(C)cc2)cc1` was tested. Which inhibition [1] did it give?
Answer: 2.5%

Question: And the inhibition [2]?
Answer: 5.4%

Question: Which inhibition [1] does the source give for `Cc1ccc[n+](CCCC#Cc2cccc(C#CCCC[n+]3cccc(C)c3)c2)c1` here?
Answer: 0.5%

Question: What about the inhibition [2] of the same compound?
Answer: 8%

Question: What does the source list for `Cc1ccc[n+](CCCCCc2cccc(CCCCC[n+]3cccc(C)c3)c2)c1`?
Answer: inhibition [1]: 3.5%; inhibition [2]: 6.24%

Question: What does the source list for `Cc1cc[n+](CCCCc2ccc(CCCC[n+]3ccc(C)cc3)cc2)cc1`?
Answer: inhibition [1]: 1.1%; inhibition [2]: 7.73%

Question: `CN1CCC[C@H]1c1ccc[n+](CCCC#Cc2ccccc2C#CCCC[n+]2cccc([C@@H]3CCCN3C)c2)c1` was tested. Which inhibition [1] did it give?
Answer: 72%

Question: What about the inhibition [2] of the same compound?
Answer: 9.2%

Question: Which results are given for `Cc1cc[n+](CCC#Cc2ccc(C#CCC[n+]3ccc(C)cc3)cc2)cc1`?
Answer: inhibition [1]: 8.9%; inhibition [2]: 2.7%

Question: How did the inhibition [1] turn out when `Cc1cccc[n+]1CCCC#Cc1cccc(C#CCCC[n+]2ccccc2C)c1` was run?
Answer: 1.9%

Question: And the inhibition [2]?
Answer: 0%

Question: `Cc1cc[n+](CCCCCc2ccccc2CCCCC[n+]2ccc(C)cc2)cc1` was tested. Which inhibition [1] did it give?
Answer: 0%

Question: And the inhibition [2]?
Answer: 3.1%

Question: For `CN1CCC[C@H]1c1ccc[n+](CCCCc2ccc(CCCC[n+]3cccc([C@@H]4CCCN4C)c3)cc2)c1`, which inhibition [1] is on record?
Answer: 3.66%

Question: What about the inhibition [2] of the same compound?
Answer: 5.3%

Question: What does the source list for `Cc1ccc[n+](CCCC#Cc2ccccc2C#CCCC[n+]2cccc(C)c2)c1`?
Answer: inhibition [1]: 3.9%; inhibition [2]: 0%

Question: How did the inhibition [1] turn out when `Cc1ccc[n+](CCCCc2ccc(CCCC[n+]3cccc(C)c3)cc2)c1` was run?
Answer: 4.33%

Question: And the inhibition [2]?
Answer: 7.41%

Question: What does the source list for `Cc1cccc[n+]1CCCCCc1cccc(CCCCC[n+]2ccccc2C)c1`?
Answer: inhibition [1]: 7.2%; inhibition [2]: 0%

Question: For `Cc1cc[n+](CCCCCc2cccc(CCCCC[n+]3ccc(C)cc3)c2)cc1`, which inhibition [1] is on record?
Answer: 4.6%

Question: And the inhibition [2]?
Answer: 3.5%

Question: How did the inhibition [1] turn out when `Cc1cccc[n+]1CCCCc1ccc(CCCC[n+]2ccccc2C)cc1` was run?
Answer: 6.3%

Question: And the inhibition [2]?
Answer: 0.16%

Question: For `Cc1cccc[n+]1CCCC#Cc1ccccc1C#CCCC[n+]1ccccc1C`, which inhibition [1] is on record?
Answer: 2.1%

Question: And the inhibition [2]?
Answer: 1.2%

Question: Which results are given for `CN1CCC[C@H]1c1ccc[n+](CCCC#Cc2cccc(C#CCCC[n+]3cccc([C@@H]4CCCN4C)c3)c2)c1`?
Answer: inhibition [1]: 3.1%; inhibition [2]: 2.6%
